“And” between values parts separate entries of the source, which are not always exact repeats. Equal values may be shown once. “Also recorded” adds a separate entry of the source.
test system: SADS-CoV; assay: not given; assay type: cell-based, Swine acute diarrhea syndrome coronavirus; conditions: not given

Compound	decrease of viral RNA expression in the cells
COc1ccc2cc1Oc1ccc(cc1)C[C@H]1c3c(cc4c(c3Oc3cc5c(cc3OC)CCN(C)[C@@H]5C2)OCO4)CCN1C [Cepharanthine]	72.9% and 57.5%
Nc1ccn([C@@H]2O[C@H](CO)[C@@H](O)C2(F)F)c(=O)n1 [Gemcitabine]	less remarkable differences
COc1c(C)c2c(c(O)c1C/C=C(\C)CCC(=O)OCCN1CCOCC1)C(=O)OC2 [Mycophenolate mofetil]	91.5% and 65.8%
COc1c(C)c2c(c(O)c1C/C=C(\C)CCC(=O)O)C(=O)OC2 [Mycophenolic acid]	96.7% and 93.9%

test system: SADS-CoV; assay: not given; assay type: cell-based, Swine acute diarrhea syndrome coronavirus; conditions: not given; remark: another data set of the same source

Compound	effect on virus binding compared with positive control	decrease of SADS-CoV RNA in binding assay
Nc1ccn([C@@H]2O[C@H](CO)[C@@H](O)C2(F)F)c(=O)n1 [Gemcitabine]	no statistically significant difference	
CN(C)c1ccc2nc3ccc(=[N+](C)C)cc-3sc2c1 [Methylene blue]		78.5% and 88.5%
COc1c(C)c2c(c(O)c1C/C=C(\C)CCC(=O)OCCN1CCOCC1)C(=O)OC2 [Mycophenolate mofetil]	no statistically significant difference	
COc1c(C)c2c(c(O)c1C/C=C(\C)CCC(=O)O)C(=O)OC2 [Mycophenolic acid]	no statistically significant difference	

test system: Huh7 cells; assay: not given; conditions: not given

Compound	CC50
Nc1ccn([C@@H]2O[C@H](CO)[C@@H](O)C2(F)F)c(=O)n1 [Gemcitabine]	low cytotoxicity
CN(C)c1ccc2nc3ccc(=[N+](C)C)cc-3sc2c1 [Methylene blue]	low cytotoxicity
COc1c(C)c2c(c(O)c1C/C=C(\C)CCC(=O)OCCN1CCOCC1)C(=O)OC2 [Mycophenolate mofetil]	low cytotoxicity
COc1c(C)c2c(c(O)c1C/C=C(\C)CCC(=O)O)C(=O)OC2 [Mycophenolic acid]	low cytotoxicity

test system: SADS-CoV; assay: not given; assay type: cell-based, Swine acute diarrhea syndrome coronavirus; conditions: not given; remark: another data set of the same source

Compound	virus RNA level in the supernatant when added after virus entry	decrease of viral RNA in the supernatant [log]	reduction of viral RNA compared with the positive control	viral RNA decrease [log]
COc1ccc2cc1Oc1ccc(cc1)C[C@H]1c3c(cc4c(c3Oc3cc5c(cc3OC)CCN(C)[C@@H]5C2)OCO4)CCN1C [Cepharanthine]	could not inhibit SADS-CoV replication			
Nc1ccn([C@@H]2O[C@H](CO)[C@@H](O)C2(F)F)c(=O)n1 [Gemcitabine]		1.8		
CN(C)c1ccc2nc3ccc(=[N+](C)C)cc-3sc2c1 [Methylene blue]			2- to 3 log	3
COc1c(C)c2c(c(O)c1C/C=C(\C)CCC(=O)OCCN1CCOCC1)C(=O)OC2 [Mycophenolate mofetil]		0.5		
COc1c(C)c2c(c(O)c1C/C=C(\C)CCC(=O)O)C(=O)OC2 [Mycophenolic acid]		0.9		

test system: SADS-CoV nucleocapsid protein; assay: not given; assay type: cell-based, Swine acute diarrhea syndrome coronavirus; conditions: not given

Compound	expression of viral proteins in cells (immunoblot)
Nc1ccn([C@@H]2O[C@H](CO)[C@@H](O)C2(F)F)c(=O)n1 [Gemcitabine]	inhibition effect
CN(C)c1ccc2nc3ccc(=[N+](C)C)cc-3sc2c1 [Methylene blue]	inhibition of viral protein expression
COc1c(C)c2c(c(O)c1C/C=C(\C)CCC(=O)OCCN1CCOCC1)C(=O)OC2 [Mycophenolate mofetil]	inhibition effect
COc1c(C)c2c(c(O)c1C/C=C(\C)CCC(=O)O)C(=O)OC2 [Mycophenolic acid]	inhibition effect

test system: SADS-CoV; assay: microbe, parasite or virus in culture; assay type: cell-based; conditions: Swine acute diarrhea syndrome coronavirus, Huh-7

Compound	EC50 [nM]
COc1ccc2cc1Oc1ccc(cc1)C[C@H]1c3c(cc4c(c3Oc3cc5c(cc3OC)CCN(C)[C@@H]5C2)OCO4)CCN1C [Cepharanthine]	789
Nc1ccn([C@@H]2O[C@H](CO)[C@@H](O)C2(F)F)c(=O)n1 [Gemcitabine]	117
CN(C)c1ccc2nc3ccc(=[N+](C)C)cc-3sc2c1 [Methylene blue]	218
COc1c(C)c2c(c(O)c1C/C=C(\C)CCC(=O)OCCN1CCOCC1)C(=O)OC2 [Mycophenolate mofetil]	1700
COc1c(C)c2c(c(O)c1C/C=C(\C)CCC(=O)O)C(=O)OC2 [Mycophenolic acid]	560

test system: SADS-CoV; assay: not given; assay type: cell-based, Swine acute diarrhea syndrome coronavirus; conditions: not given; remark: another data set of the same source

Compound	effect on virus internalization
COc1ccc2cc1Oc1ccc(cc1)C[C@H]1c3c(cc4c(c3Oc3cc5c(cc3OC)CCN(C)[C@@H]5C2)OCO4)CCN1C [Cepharanthine]	less function
Nc1ccn([C@@H]2O[C@H](CO)[C@@H](O)C2(F)F)c(=O)n1 [Gemcitabine]	no statistically significant difference
CN(C)c1ccc2nc3ccc(=[N+](C)C)cc-3sc2c1 [Methylene blue]	no distinct effect
COc1c(C)c2c(c(O)c1C/C=C(\C)CCC(=O)OCCN1CCOCC1)C(=O)OC2 [Mycophenolate mofetil]	no statistically significant difference
COc1c(C)c2c(c(O)c1C/C=C(\C)CCC(=O)O)C(=O)OC2 [Mycophenolic acid]	no statistically significant difference

test system: SADS-CoV; assay: not given; assay type: cell-based, Swine acute diarrhea syndrome coronavirus; conditions: not given; remark: another data set of the same source

Compound	viral titers in the supernatant (infectious progeny)
COc1ccc2cc1Oc1ccc(cc1)C[C@H]1c3c(cc4c(c3Oc3cc5c(cc3OC)CCN(C)[C@@H]5C2)OCO4)CCN1C [Cepharanthine]	at the ”Entry” stage could reduce infectious progeny
Nc1ccn([C@@H]2O[C@H](CO)[C@@H](O)C2(F)F)c(=O)n1 [Gemcitabine]	exhibited inhibitory effects only when they were added after viral entry
CN(C)c1ccc2nc3ccc(=[N+](C)C)cc-3sc2c1 [Methylene blue]	strong inhibitory activity against viral replication during both periods
COc1c(C)c2c(c(O)c1C/C=C(\C)CCC(=O)OCCN1CCOCC1)C(=O)OC2 [Mycophenolate mofetil]	exhibited inhibitory effects only when they were added after viral entry
COc1c(C)c2c(c(O)c1C/C=C(\C)CCC(=O)O)C(=O)OC2 [Mycophenolic acid]	exhibited inhibitory effects only when they were added after viral entry

test system: not listed separately; assay: in vitro; conditions: human

Compound	CC50 [nM]
COc1ccc2cc1Oc1ccc(cc1)C[C@H]1c3c(cc4c(c3Oc3cc5c(cc3OC)CCN(C)[C@@H]5C2)OCO4)CCN1C [Cepharanthine]	16200
Nc1ccn([C@@H]2O[C@H](CO)[C@@H](O)C2(F)F)c(=O)n1 [Gemcitabine]	88500
CN(C)c1ccc2nc3ccc(=[N+](C)C)cc-3sc2c1 [Methylene blue]	> 25000
COc1c(C)c2c(c(O)c1C/C=C(\C)CCC(=O)OCCN1CCOCC1)C(=O)OC2 [Mycophenolate mofetil]	> 100000
COc1c(C)c2c(c(O)c1C/C=C(\C)CCC(=O)O)C(=O)OC2 [Mycophenolic acid]	> 100000

test system: SADS-CoV; assay: not given; assay type: cell-based, Swine acute diarrhea syndrome coronavirus; conditions: not given; remark: another data set of the same source

Compound	SADS-CoV titer (TCID50) at 24 hpi
COc1ccc2cc1Oc1ccc(cc1)C[C@H]1c3c(cc4c(c3Oc3cc5c(cc3OC)CCN(C)[C@@H]5C2)OCO4)CCN1C [Cepharanthine]	viral titer was decreased; also recorded: also effective; also recorded: showed a reduction in SADS-CoV viral progeny
CN(C)c1ccc2nc3ccc(=[N+](C)C)cc-3sc2c1 [Methylene blue]	inhibit SADS-CoV infection; also recorded: inhibition effect got better

test system: SADS-CoV; assay: microbe, parasite or virus in culture; assay type: cell-based, Swine acute diarrhea syndrome coronavirus; conditions: not given

Compound	CPE inhibition in SADS-CoV infection
COc1ccc2cc1Oc1ccc(cc1)C[C@H]1c3c(cc4c(c3Oc3cc5c(cc3OC)CCN(C)[C@@H]5C2)OCO4)CCN1C [Cepharanthine]	significantly exhibited CPE inhibitions
Nc1ccn([C@@H]2O[C@H](CO)[C@@H](O)C2(F)F)c(=O)n1 [Gemcitabine]	significantly exhibited CPE inhibitions
CN(C)c1ccc2nc3ccc(=[N+](C)C)cc-3sc2c1 [Methylene blue]	significantly exhibited CPE inhibitions
COc1c(C)c2c(c(O)c1C/C=C(\C)CCC(=O)OCCN1CCOCC1)C(=O)OC2 [Mycophenolate mofetil]	significantly exhibited CPE inhibitions
COc1c(C)c2c(c(O)c1C/C=C(\C)CCC(=O)O)C(=O)OC2 [Mycophenolic acid]	significantly exhibited CPE inhibitions

same assay, conditions: Swine acute diarrhea syndrome coronavirus, Huh-7, read-out: inhibition rate of SADS-CoV viral replication (qPCR)

Compound	inhibition at 10 µM [%]
COc1ccc2cc1Oc1ccc(cc1)C[C@H]1c3c(cc4c(c3Oc3cc5c(cc3OC)CCN(C)[C@@H]5C2)OCO4)CCN1C [Cepharanthine]	> 60
Nc1ccn([C@@H]2O[C@H](CO)[C@@H](O)C2(F)F)c(=O)n1 [Gemcitabine]	> 60
CN(C)c1ccc2nc3ccc(=[N+](C)C)cc-3sc2c1 [Methylene blue]	> 60
COc1c(C)c2c(c(O)c1C/C=C(\C)CCC(=O)OCCN1CCOCC1)C(=O)OC2 [Mycophenolate mofetil]	> 60
COc1c(C)c2c(c(O)c1C/C=C(\C)CCC(=O)O)C(=O)OC2 [Mycophenolic acid]	> 60

Reference: publication PMC9569988 (International Journal of Molecular Sciences, 2022)
